Measurements taken from patent US20150005288A1, “SUBSTITUTED PHENYLIMIDAZOPYRAZOLES AND USE THEREOF” (Bayer Intellectual Property GmbH, priority 2012, published 2015).
Structures can show the parent of a compound that is named as a salt.

Target: T1, intracellular domain of human Tie2 (GST fusion protein) (Homo sapiens, UniProt Q02763)
T1 construct: intracellular domain of human Tie2 (amino acids 776-1124); made in house; host or cells: Baculovirus-infected insect cells (Hi5)
Assay: Tie2 kinase assay (Tie2-TR-FRET)
Assay type: biochemical
Details: ATP concentration 1 mM, in some cases means of several independent determinations
Procedure, shortened: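 GST fusion of human Tie2 intracellular domain (aa 776-1124, Hi5-expressed), ~30 ng/ml, pre-incubated 15 min with compound, then 1 mM ATP and 1 μM biotinylated peptide, 60 min at 22 °C, pH 7. TR-FRET (Eu anti-phosphotyrosine/streptavidin-XL665, 665/620 nm ratio). […] 20 μM–0.073 nM in duplicate; IC50 by 4-parameter fit.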

T1 sequence (Q02763 776-1124): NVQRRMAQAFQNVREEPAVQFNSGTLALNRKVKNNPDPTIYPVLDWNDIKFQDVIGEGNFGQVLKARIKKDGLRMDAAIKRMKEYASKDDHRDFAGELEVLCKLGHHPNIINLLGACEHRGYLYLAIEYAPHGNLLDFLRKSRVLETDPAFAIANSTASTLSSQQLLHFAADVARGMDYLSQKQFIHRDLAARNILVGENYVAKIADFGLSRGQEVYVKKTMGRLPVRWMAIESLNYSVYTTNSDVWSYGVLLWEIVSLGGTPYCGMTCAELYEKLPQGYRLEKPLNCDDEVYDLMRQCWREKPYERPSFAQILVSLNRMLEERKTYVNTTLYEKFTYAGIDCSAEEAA

Row | SMILES | IC50 [nM]
1 | Cc1ccc(NC(=O)c2cccc(S(F)(F)(F)(F)F)c2)c(C)c1-n1ccn2nc(-c3cccnc3)cc12 [Example 119, N-{2,4-Dimethyl-3-[6-(pyridin-3-yl)-1H-imidazo[1,2-b]pyrazol-1-yl]phenyl}-3-(pentafluoro-λ^6-sulphanyl)benzamide] | 110
2 | Cc1ccc(NC(=O)c2cc(Br)cc(S(F)(F)(F)(F)F)c2)c(C)c1-n1ccn2nc(-c3cccnc3)cc12 [Example 120, 3-Bromo-N-{2,4-dimethyl-3-[6-(pyridin-3-yl)-1H-imidazo[1,2-b]pyrazol-1-yl]phenyl}-5-(pentafluoro-λ^6-sulphanyl)benzamide] | 37
3 | Cc1ccc(NC(=O)c2cc(C#N)cc(S(F)(F)(F)(F)F)c2)c(C)c1-n1ccn2nc(-c3cccnc3)cc12 [Example 121, 3-Cyano-N-{2,4-dimethyl-3-[6-(pyridin-3-yl)-1H-imidazo[1,2-b]pyrazol-1-yl]phenyl}-5-(pentafluoro-λ^6-sulphanyl)benzamide] | 18
4 | Cc1ccc(NC(=O)c2cc(C(F)(F)F)cc(S(N)(=O)=O)c2)cc1-n1ccn2nc(-c3cccnc3)cc12 [Example 122, N-{4-Methyl-3-[6-(pyridin-3-yl)-1H-imidazo[1,2-b]pyrazol-1-yl]phenyl}-3-sulphamoyl-5-(trifluoromethyl)benzamide] | 3.9
5 | Cc1ccc(NC(=O)c2cccc(C(C)(C)C)c2)cc1-n1ccn2nc(-c3cccnc3)cc12 [Example 123, 3-tert-Butyl-N-{4-methyl-3-[6-(pyridin-3-yl)-1H-imidazo[1,2-b]pyrazol-1-yl]phenyl}benzamide] | 56
6 | Cc1cc(C(=O)Nc2ccc(C)c(-n3ccn4nc(-c5cccnc5)cc34)c2)cc(S(N)(=O)=O)c1 [Example 124, 3-Methyl-N-{4-methyl-3-[6-(pyridin-3-yl)-1H-imidazo[1,2-b]pyrazol-1-yl]phenyl}-5-sulphamoyl-benzamide] | 297
7 | Cc1ccc(NC(=O)c2cc(C(C)(C)C)ccn2)cc1-n1ccn2nc(-c3cccnc3)cc12 [Example 125, 4-tert-Butyl-N-{4-methyl-3-[6-(pyridin-3-yl)-1H-imidazo[1,2-b]pyrazol-1-yl]phenyl}pyridine-2-carboxamide] | 280
8 | Cc1cc(C)c(-n2ccn3nc(-c4cccnc4)cc23)cc1NC(=O)c1cccc(SC(F)(F)F)c1 [Example 126, N-{2,4-Dimethyl-5-[6-(pyridin-3-yl)-1H-imidazo[1,2-b]pyrazol-1-yl]phenyl}-3-[(trifluoromethyl)-sulphanyl]benzamide] | 1.2
9 | Cc1cc(C)c(-n2ccn3nc(-c4cccnc4)cc23)cc1NC(=O)c1cccc(OC(F)(F)F)c1 [Example 127, N-{2,4-Dimethyl-5-[6-(pyridin-3-yl)-1H-imidazo[1,2-b]pyrazol-1-yl]phenyl}-3-(trifluoromethoxy)benzamide] | 1.4
10 | Cc1cc(C)c(-n2ccn3nc(-c4cccnc4)cc23)cc1NC(=O)c1cccc(OC(F)F)c1 [Example 128, N-{2,4-Dimethyl-5-[6-(pyridin-3-yl)-1H-imidazo[1,2-b]pyrazol-1-yl]phenyl}-3-(difluoromethoxy)-benzamide] | 43
11 | Cc1cc(C)c(-n2ccn3nc(-c4cccnc4)cc23)cc1NC(=O)c1cccc(OC(F)(F)C(F)F)c1 [Example 129, N-{2,4-Dimethyl-5-[6-(pyridin-3-yl)-1H-imidazo[1,2-b]pyrazol-1-yl]phenyl}-3-(1,1,2,2-tetra-fluoroethoxy)benzamide] | 3.2
12 | Cc1cc(C)c(-n2ccn3nc(-c4cccnc4)cc23)cc1NC(=O)c1cccc(OCC(F)(F)F)c1 [Example 130, N-{2,4-Dimethyl-5-[6-(pyridin-3-yl)-1H-imidazo[1,2-b]pyrazol-1-yl]phenyl}-3-(2,2,2-trifluoroethoxy)benzamide] | 24
13 | COc1cccc(C(=O)Nc2cc(-n3ccn4nc(-c5cccnc5)cc34)c(C)cc2C)c1 [Example 131, N-{2,4-Dimethyl-5-[6-(pyridin-3-yl)-1H-imidazo[1,2-b]pyrazol-1-yl]phenyl}-3-methoxybenzamide] | 252
14 | Cc1cc(C)c(-n2ccn3nc(-c4cccnc4)cc23)cc1NC(=O)c1cccc(OC(C)C)c1 [Example 132, N-{2,4-Dimethyl-5-[6-(pyridin-3-yl)-1H-imidazo[1,2-b]pyrazol-1-yl]phenyl}-3-isopropoxybenzamide] | 4.6
15 | Cc1cc(C)c(-n2ccn3nc(-c4cccnc4)cc23)cc1NC(=O)c1cccc(OCC(C)C)c1 [Example 133, N-{2,4-Dimethyl-5-[6-(pyridin-3-yl)-1H-imidazo[1,2-b]pyrazol-1-yl]phenyl}-3-isobutoxybenzamide] | 53
16 | Cc1cc(C)c(-n2ccn3nc(-c4cccnc4)cc23)cc1NC(=O)c1cccc(OC(C)(C)C)c1 [Example 134, 3-tert-Butoxy-N-{2,4-dimethyl-5-[6-(pyridin-3-yl)-1H-imidazo[1,2-b]pyrazol-1-yl]phenyl}-benzamide] | 55
17 | CCOCCOc1cccc(C(=O)Nc2cc(-n3ccn4nc(-c5cccnc5)cc34)c(C)cc2C)c1 [Example 135, N-{2,4-Dimethyl-5-[6-(pyridin-3-yl)-1H-imidazo[1,2-b]pyrazol-1-yl]phenyl}-3-(2-ethoxyethoxy)-benzamide] | 607
18 | Cc1cc(C)c(-n2ccn3nc(-c4cccnc4)cc23)cc1NC(=O)c1cccc(OCCO)c1 [Example 136, N-{2,4-Dimethyl-5-[6-(pyridin-3-yl)-1H-imidazo[1,2-b]pyrazol-1-yl]phenyl}-3-(2-hydroxyethoxy)benzamide] | 687
19 | Cc1cc(C)c(-n2ccn3nc(-c4cccnc4)cc23)cc1NC(=O)c1cccc(OCCN(C)C)c1 [Example 137, 3-[2-(Dimethylamino)ethoxy]-N-{2,4-dimethyl-5-[6-(pyridin-3-yl)-1H-imidazo[1,2-b]pyrazol-1-yl]phenyl}benzamide] | 409
20 | Cc1cc(C)c(-n2ccn3nc(-c4cccnc4)cc23)cc1NC(=O)c1cccc(N2CCC(F)(F)CC2)c1 [Example 138, 3-(4,4-Difluoropiperidin-1-yl)-N-{2,4-dimethyl-5-[6-(pyridin-3-yl)-1H-imidazo[1,2-b]pyrazol-1-yl]phenyl}benzamide] | 65
21 | Cc1cc(C)c(-n2ccn3nc(-c4cccnc4)cc23)cc1NC(=O)c1cccc(C(C)(C)C(F)(F)F)c1 [Example 139, N-{2,4-Dimethyl-5-[6-(pyridin-3-yl)-1H-imidazo[1,2-b]pyrazol-1-yl]phenyl}-3-(1,1,1-trifluoro-2-methylpropan-2-yl)benzamide] | 0.5
22 | Cc1cc(C)c(-n2ccn3nc(-c4cccnc4)cc23)cc1NC(=O)c1cccc(C2(C)COC2)c1 [Example 140, N-{2,4-Dimethyl-5-[6-(pyridin-3-yl)-1H-imidazo[1,2-b]pyrazol-1-yl]phenyl}-3-(3-methyloxetan-3-yl)benzamide] | 0.5
23 | Cc1cc(C)c(-n2ccn3nc(-c4cccnc4)cc23)cc1NC(=O)c1cccc(C(C)(C)O)c1 [Example 141, N-{2,4-Dimethyl-5-[6-(pyridin-3-yl)-1H-imidazo[1,2-b]pyrazol-1-yl]phenyl}-3-(2-hydroxypropan-2-yl)benzamide] | 62
24 | Cc1cc(C)c(-n2ccn3nc(-c4cccnc4)cc23)cc1NC(=O)c1cccc(C(C)(C)F)c1 [Example 142, N-{2,4-Dimethyl-5-[6-(pyridin-3-yl)-1H-imidazo[1,2-b]pyrazol-1-yl]phenyl}-3-(2-fluoropropan-2-yl)benzamide] | 0.9
25 | Cc1cc(C)c(-n2ccn3nc(-c4cccnc4)cc23)cc1NC(=O)c1cc(N2CCCCC2)cc(S(F)(F)(F)(F)F)c1 [Example 143, N-{2,4-Dimethyl-5-[6-(pyridin-3-yl)-1H-imidazo[1,2-b]pyrazol-1-yl]phenyl}-3-(pentafluoro-λ^6-sulphanyl)-5-(piperidin-1-yl)benzamide] | 1.3
26 | Cc1cc(C)c(-n2ccn3nc(-c4cccnc4)cc23)cc1NC(=O)c1cc(N2CCC(C#N)CC2)cc(S(F)(F)(F)(F)F)c1 [Example 144, 3-(4-Cyanopiperidin-1-yl)-N-{2,4-dimethyl-5-[6-(pyridin-3-yl)-1H-imidazo[1,2-b]pyrazol-1-yl]-phenyl}-5-(pentafluoro-λ^6-sulphanyl)benzamide] | 0.6
27 | COC1CCN(c2cc(C(=O)Nc3cc(-n4ccn5nc(-c6cccnc6)cc45)c(C)cc3C)cc(S(F)(F)(F)(F)F)c2)CC1 [Example 145, N-{2,4-Dimethyl-5-[6-(pyridin-3-yl)-1H-imidazo[1,2-b]pyrazol-1-yl]phenyl}-3-(4-methoxypiperidin-1-yl)-5-(pentafluoro-λ^6-sulphanyl)benzamide] | 0.9
28 | COC1CN(c2cc(C(=O)Nc3cc(-n4ccn5nc(-c6cccnc6)cc45)c(C)cc3C)cc(S(F)(F)(F)(F)F)c2)C1 [Example 146, N-{2,4-Dimethyl-5-[6-(pyridin-3-yl)-1H-imidazo[1,2-b]pyrazol-1-yl]phenyl}-3-(3-methoxyazetidin-1-yl)-5-(pentafluoro-λ^6-sulphanyl)benzamide] | 0.7
29 | Cc1cc(C)c(-n2ccn3nc(-c4cccnc4)cc23)cc1NC(=O)c1cc(C#N)cc(S(F)(F)(F)(F)F)c1 [Example 147, 3-Cyano-N-{2,4-dimethyl-5-[6-(pyridin-3-yl)-1H-imidazo[1,2-b]pyrazol-1-yl]phenyl}-5-(pentafluoro-λ^6-sulphanyl)benzamide dihydrochloride] | 0.2
30 | Cc1cc(C)c(-n2ccn3nc(-c4cccnc4)cc23)cc1NC(=O)c1cc(C(C)(C)O)cc(S(F)(F)(F)(F)F)c1 [Example 148, N-{2,4-Dimethyl-5-[6-(pyridin-3-yl)-1H-imidazo[1,2-b]pyrazol-1-yl]phenyl}-3-(2-hydroxypropan-2-yl)-5-(pentafluoro-λ^6-sulphanyl)benzamide] | 0.4
